Here are results for six compounds from publication PMC4858680, “A platinum-based hybrid drug design approach to circumvent acquired resistance to molecular targeted tyrosine kinase inhibitors” (Scientific Reports, 2016).

The target in one assay is ROS1 (Homo sapiens, UniProt P08922). Conditions: 10 μM.
For another assay, the target named is T1, FER (Homo sapiens, UniProt P16591).
T1 construct: purchased DiscoveRx KINOMEscan
In kind it is binding. Conditions: for Percent control: 10 μM.

In another assay the target is T2, AXL (Homo sapiens, UniProt P30530).
T2 sequence (P30530 26-894): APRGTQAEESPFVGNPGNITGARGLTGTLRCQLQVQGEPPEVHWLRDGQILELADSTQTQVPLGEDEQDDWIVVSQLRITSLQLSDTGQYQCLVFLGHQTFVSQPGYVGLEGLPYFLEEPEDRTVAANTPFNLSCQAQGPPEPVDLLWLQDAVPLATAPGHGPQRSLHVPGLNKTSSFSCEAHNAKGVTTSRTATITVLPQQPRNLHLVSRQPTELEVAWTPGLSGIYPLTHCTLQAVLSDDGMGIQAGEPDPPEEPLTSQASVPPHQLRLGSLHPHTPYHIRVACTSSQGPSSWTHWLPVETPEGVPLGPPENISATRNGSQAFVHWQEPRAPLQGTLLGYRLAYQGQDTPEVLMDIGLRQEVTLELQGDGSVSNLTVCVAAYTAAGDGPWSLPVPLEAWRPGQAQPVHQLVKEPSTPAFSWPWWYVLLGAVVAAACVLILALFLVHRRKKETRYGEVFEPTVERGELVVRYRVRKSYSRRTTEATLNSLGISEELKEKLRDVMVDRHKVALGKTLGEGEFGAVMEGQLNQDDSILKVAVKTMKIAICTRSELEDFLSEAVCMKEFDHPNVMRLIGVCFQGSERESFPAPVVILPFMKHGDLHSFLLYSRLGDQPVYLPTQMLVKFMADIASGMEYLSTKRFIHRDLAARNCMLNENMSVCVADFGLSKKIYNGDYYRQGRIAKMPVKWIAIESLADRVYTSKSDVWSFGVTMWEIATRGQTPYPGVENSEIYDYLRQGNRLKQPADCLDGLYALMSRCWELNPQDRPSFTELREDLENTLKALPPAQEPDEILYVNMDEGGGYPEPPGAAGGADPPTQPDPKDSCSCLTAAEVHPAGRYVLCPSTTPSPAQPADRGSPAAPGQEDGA
To be noted: 10 μM.

The subject of a further assay is EGFR(L747-T751del,Sins). In kind it is binding. Conditions: 10 μM.
The next assay concerns the target CSK (Homo sapiens, UniProt P41240). Conditions: 10 μM.
In another assay the test system is H292. The experiment in a line: Anticancer activity (cytotoxicity) in NSCLC cell line. In kind it is cell-based.
The subject of another assay is H1975. The assay is described as above. It counts as cell-based. Conditions: Homo sapiens, NCI-H1975, read-out: Anticancer activity (IC50) H1975.
For the next assay, the target named is MET(M1250T) (Homo sapiens, UniProt P08581, M1250T). The experiment in a line: biochemical. To be noted: read-out: Percent control.
The next assay concerns the target FLT4 (Homo sapiens, UniProt P35916). The experiment in a line: biochemical. Conditions: read-out: Percent control.
The next assay deals with SYK (Homo sapiens, UniProt P43405). The experiment in a line: biochemical. Conditions: read-out: Percent control.
A further assay addresses PDGFRB (Homo sapiens, UniProt P09619). The experiment in a line: biochemical. Conditions: read-out: Percent control.
The target of another assay is TRKC (Homo sapiens, UniProt Q16288). The experiment in a line: biochemical. To be noted: read-out: Percent control.
The next assay deals with T3, ITK (Homo sapiens, UniProt Q08881).
T3 sequence (Q08881 1-620): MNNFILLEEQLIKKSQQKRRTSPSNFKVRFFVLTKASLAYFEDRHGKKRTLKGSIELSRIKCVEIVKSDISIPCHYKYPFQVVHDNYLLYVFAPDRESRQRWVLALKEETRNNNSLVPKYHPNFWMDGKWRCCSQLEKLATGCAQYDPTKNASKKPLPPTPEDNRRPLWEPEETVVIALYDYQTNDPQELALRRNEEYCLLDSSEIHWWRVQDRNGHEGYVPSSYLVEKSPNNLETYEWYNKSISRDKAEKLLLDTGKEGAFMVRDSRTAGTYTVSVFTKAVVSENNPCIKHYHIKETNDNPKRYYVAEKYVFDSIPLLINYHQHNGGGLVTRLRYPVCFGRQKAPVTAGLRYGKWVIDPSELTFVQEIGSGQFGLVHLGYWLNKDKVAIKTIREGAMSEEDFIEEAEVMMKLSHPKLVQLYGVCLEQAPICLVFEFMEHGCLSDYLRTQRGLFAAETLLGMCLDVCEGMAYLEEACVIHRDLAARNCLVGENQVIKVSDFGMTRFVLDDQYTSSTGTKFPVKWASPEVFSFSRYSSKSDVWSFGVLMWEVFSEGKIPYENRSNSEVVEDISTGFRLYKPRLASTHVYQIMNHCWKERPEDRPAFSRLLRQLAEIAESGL
The experiment in a line: biochemical. To be noted: read-out: Percent control.

The mark [1] stands for this setting: NSCLC, EGFR wild type, read-out: Anticancer activity (IC50) H292.
Setting [2] is: Homo sapiens, NCI-H292, read-out: Anticancer activity (IC50) H292.

For orientation: IC50 means the concentration that gives 50% inhibition.

Molecules are shown by their SMILES. Where two headings read alike, the source gives them in different places.

Sequence of CSK (P41240 whole entry): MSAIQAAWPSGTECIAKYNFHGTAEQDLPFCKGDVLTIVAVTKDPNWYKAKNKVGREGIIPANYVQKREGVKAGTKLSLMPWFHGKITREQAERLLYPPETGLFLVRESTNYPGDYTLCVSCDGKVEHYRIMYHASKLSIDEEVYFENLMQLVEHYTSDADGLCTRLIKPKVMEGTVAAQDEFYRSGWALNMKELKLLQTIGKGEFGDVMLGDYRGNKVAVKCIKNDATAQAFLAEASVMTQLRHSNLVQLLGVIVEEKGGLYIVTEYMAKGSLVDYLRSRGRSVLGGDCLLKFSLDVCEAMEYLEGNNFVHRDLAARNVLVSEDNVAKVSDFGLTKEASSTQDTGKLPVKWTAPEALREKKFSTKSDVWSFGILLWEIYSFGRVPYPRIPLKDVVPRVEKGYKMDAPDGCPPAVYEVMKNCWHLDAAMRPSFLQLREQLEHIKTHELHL
T1 sequence (P16591 whole entry): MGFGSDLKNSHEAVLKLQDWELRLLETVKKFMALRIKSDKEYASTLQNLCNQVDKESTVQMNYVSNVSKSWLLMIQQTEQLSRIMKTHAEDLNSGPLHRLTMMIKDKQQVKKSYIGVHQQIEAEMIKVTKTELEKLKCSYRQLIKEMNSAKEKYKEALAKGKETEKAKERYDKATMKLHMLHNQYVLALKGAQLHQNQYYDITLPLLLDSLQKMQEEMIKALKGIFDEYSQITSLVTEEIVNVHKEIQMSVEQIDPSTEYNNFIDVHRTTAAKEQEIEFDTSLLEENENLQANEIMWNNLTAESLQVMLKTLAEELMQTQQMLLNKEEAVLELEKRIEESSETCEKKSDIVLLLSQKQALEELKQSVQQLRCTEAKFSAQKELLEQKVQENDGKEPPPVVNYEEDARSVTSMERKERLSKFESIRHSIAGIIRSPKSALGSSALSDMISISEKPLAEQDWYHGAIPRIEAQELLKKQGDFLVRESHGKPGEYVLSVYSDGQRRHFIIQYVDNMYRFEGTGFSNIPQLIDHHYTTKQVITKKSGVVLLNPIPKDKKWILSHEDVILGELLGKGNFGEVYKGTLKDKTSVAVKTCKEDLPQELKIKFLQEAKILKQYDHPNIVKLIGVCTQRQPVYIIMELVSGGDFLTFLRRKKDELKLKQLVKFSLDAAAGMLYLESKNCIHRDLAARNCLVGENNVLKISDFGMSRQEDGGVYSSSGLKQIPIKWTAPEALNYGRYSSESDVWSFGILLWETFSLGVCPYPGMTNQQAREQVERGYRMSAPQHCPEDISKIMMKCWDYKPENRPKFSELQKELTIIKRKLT
Sequence of ROS1 (P08922 28-2347): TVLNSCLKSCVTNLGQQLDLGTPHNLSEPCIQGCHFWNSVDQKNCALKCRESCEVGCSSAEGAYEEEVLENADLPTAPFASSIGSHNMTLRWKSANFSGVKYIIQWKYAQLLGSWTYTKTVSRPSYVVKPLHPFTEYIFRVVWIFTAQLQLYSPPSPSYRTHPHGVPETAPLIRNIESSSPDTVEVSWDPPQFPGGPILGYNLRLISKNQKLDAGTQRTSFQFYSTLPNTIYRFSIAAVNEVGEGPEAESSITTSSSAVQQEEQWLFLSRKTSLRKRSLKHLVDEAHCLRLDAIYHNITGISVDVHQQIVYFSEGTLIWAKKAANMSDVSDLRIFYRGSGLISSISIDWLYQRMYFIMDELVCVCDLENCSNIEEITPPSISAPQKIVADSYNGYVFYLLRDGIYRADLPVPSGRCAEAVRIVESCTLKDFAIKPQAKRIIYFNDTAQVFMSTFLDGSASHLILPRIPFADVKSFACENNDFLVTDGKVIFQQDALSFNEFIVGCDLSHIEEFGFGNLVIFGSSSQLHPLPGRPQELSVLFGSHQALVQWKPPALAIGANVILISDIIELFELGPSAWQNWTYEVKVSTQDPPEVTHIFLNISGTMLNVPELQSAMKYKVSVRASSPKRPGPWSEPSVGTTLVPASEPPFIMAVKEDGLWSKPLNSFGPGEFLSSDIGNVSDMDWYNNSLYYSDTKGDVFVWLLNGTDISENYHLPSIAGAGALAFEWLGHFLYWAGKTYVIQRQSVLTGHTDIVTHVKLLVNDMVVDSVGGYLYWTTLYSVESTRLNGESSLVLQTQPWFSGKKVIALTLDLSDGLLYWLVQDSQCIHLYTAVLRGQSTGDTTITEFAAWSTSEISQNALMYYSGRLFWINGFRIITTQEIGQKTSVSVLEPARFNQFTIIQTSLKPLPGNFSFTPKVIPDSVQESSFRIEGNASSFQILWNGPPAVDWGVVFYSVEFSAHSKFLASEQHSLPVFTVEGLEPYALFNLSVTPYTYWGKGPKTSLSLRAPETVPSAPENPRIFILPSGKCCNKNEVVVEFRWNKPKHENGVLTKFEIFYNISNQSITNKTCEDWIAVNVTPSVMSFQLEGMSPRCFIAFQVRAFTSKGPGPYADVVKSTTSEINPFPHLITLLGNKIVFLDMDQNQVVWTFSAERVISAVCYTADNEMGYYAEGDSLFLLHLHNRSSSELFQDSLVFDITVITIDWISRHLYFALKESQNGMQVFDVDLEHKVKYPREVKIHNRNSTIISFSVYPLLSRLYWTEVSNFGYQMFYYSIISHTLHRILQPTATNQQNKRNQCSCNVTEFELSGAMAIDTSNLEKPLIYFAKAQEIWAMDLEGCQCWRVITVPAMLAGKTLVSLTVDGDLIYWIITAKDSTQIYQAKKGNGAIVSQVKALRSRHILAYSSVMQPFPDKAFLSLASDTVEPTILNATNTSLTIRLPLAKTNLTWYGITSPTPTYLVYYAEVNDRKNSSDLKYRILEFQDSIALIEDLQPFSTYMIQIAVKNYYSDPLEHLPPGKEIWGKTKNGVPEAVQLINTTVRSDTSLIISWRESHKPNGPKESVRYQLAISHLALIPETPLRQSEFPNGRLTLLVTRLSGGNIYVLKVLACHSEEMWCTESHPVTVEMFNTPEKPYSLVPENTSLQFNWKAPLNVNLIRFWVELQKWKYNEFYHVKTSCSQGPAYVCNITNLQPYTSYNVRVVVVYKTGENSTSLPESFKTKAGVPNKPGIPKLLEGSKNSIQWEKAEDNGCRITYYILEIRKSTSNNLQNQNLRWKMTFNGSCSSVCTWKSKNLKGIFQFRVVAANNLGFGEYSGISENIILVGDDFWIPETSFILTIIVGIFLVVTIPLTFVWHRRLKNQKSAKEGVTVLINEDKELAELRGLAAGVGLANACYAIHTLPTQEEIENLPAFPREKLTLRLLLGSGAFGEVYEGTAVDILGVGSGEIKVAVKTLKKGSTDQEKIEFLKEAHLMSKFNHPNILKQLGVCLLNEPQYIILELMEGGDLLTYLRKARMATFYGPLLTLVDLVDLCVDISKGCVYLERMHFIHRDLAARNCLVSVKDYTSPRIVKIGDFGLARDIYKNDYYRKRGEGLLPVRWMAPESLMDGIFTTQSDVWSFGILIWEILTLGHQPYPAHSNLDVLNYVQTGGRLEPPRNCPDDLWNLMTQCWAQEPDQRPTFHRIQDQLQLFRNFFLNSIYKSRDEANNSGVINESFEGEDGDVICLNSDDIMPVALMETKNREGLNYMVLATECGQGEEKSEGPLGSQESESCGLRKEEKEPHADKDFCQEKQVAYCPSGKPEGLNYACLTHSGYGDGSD
Sequence of TRKC (Q16288 32-839): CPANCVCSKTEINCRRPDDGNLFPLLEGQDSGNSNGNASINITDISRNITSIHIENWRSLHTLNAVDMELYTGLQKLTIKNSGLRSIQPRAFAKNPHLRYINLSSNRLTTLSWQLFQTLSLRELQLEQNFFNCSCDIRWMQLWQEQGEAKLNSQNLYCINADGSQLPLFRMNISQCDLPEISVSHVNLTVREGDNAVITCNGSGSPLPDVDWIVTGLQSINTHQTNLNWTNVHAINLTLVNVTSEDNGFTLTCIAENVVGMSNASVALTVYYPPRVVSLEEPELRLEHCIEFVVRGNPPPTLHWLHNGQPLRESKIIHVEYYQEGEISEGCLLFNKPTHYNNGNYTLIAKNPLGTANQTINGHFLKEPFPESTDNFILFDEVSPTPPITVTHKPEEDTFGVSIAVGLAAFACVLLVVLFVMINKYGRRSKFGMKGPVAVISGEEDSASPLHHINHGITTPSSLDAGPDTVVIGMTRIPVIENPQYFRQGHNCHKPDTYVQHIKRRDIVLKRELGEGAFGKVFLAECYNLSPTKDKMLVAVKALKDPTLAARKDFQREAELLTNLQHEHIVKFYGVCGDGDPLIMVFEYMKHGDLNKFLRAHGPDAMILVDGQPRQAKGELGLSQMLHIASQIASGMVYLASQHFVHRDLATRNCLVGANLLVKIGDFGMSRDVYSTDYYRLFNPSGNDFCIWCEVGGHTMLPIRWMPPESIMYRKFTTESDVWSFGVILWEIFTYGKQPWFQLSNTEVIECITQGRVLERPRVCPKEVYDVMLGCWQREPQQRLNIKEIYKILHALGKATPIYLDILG

Turning to `Cc1ccc(NC(=O)c2ccc(CN3CCN(C)CC3)cc2)cc1Nc1nccc(-c2cccnc2)[n+]1[Pt-2]1([Cl])[NH2+]C2CCCCC2[NH2+]1` (stereo not drawn) [1b, oxaliplatin-imatinib], the Percent control on ROS1 amounted to 32%; at FER, 89%; at AXL, 100%; in the assay on EGFR(L747-T751del,Sins), 76%; at CSK it was 100%.
Turning to `C#Cc1cccc(Nc2c3cc(OCCOC)c(OCCOC)cc3nc[n+]2[Pt@SP2-2]([NH3+])([NH3+])[Cl])c1` [2a, cisplatin-erlotinib], the Percent control at ROS1 amounted to 91%; on FER, 95%; at AXL, 93%; on CSK it was 100%. Moreover, the IC50 with H292 (setting [1]) stood at 3.27 ± 1.75 µM.
In the same order, the values of `COc1cc2c(Nc3ccc(Br)cc3F)[n+]([Pt-2]3([Cl])[NH2+]C4CCCCC4[NH2+]3)cnc2cc1OCC1CCN(C)CC1` (stereo not drawn) [3b, oxaliplatin-vandetanib] are 74%, 90%, 19%, 41% and 9.32 ± 1.01 µM.
Consider `C#Cc1cccc(Nc2ncnc3cc(OCCOC)c(OCCOC)cc23)c1` [Erlotinib], for which the concentration for half-maximal inhibition (IC50) in the assay on H1975 amounted to 11.8 ± 3.19 µM; in the assay with H292 (setting [2]), 0.22 ± 0.12 µM. Besides, the remaining activity at 10 µM on MET(M1250T) was 21.9%; on FLT4, 17.4%; at SYK, 100%; on PDGFRB it was 12.3%; on TRKC, 100%; on ITK, 100%. Besides, in the assay with EGFR(L747-T751del,Sins), the Percent control came out at 0.0%.
For the compound `Cc1ccc(NC(=O)c2ccc(CN3CCN(C)CC3)cc2)cc1Nc1nccc(-c2cccnc2)n1` [Imatinib, reference compound], the Percent control at ROS1, on FER, at AXL and with EGFR(L747-T751del,Sins) was 100% in each case. In addition, the remaining activity at 10 µM at MET(M1250T) stood at 100%; at PDGFRB, 0.1%; on ITK, 100%.
As to `COc1cc2c(Nc3ccc(Br)cc3F)ncnc2cc1OCC1CCN(C)CC1` [Vandetanib, reference compound], the half-maximal inhibitory concentration (IC50) with H1975 worked out at 13.8 ± 2.06 µM; with H292 (setting [2]), 6.24 ± 0.94 µM. Besides, the remaining binding at 10 µM at FER (read-out: Percent control) came out at 100%. Besides, the remaining activity at 10 µM was 9.9% at FLT4, 100% at SYK, 100% on TRKC and 100% at ITK. This compound had a Percent control in the assay on EGFR(L747-T751del,Sins) of 0.1%.
